Results: ChEMBL document CHEMBL1201862, “PubChem BioAssay data set” (2004)
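Cells were grown in 96-well plates and exposed to each compound for 48 hours at five concentrations; endpoints were interpolated linearly between bracketing concentrations, or set to the highest concentration if not reached. At the GI50, growth is halved.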 Activity calls are given as the source filed them. No stated cut-off is given here; in the data, active = GI50 up to about 1.1 µM and inactive = higher.

How the values were obtained:
Experiment in all cases: NCI anticancer screen, dose series, 48 h
[1] = tested on: UACC-62
[2] = tested on: U-251
[3] = tested on: NCI-H460
[4] = tested on: EKVX
[5] = tested on: TK-10
[6] = tested on: A549
[7] = tested on: OVCAR-8
[8] = tested on: HCT-116
[9] = tested on: Malme-3M
[10] = tested on: SW-620
[11] = tested on: NCI-H226
[12] = tested on: SK-OV-3
[13] = tested on: SF-268
[14] = tested on: HCC 2998
[15] = tested on: RPMI-8226
[16] = tested on: UACC-257
[17] = tested on: HOP-92
[18] = tested on: MOLT-4

Measured: GI50

Cc1c(CCO)c(O)n2c(nc3ccccc32)c1C#N
inactive: [1] > 100 µM | [2] 46.1 µM | [3] 26.7 µM | [4] > 100 µM | [5] > 100 µM | [6] > 100 µM | [7] 83.9 µM | [8] 41.3 µM | [9] > 100 µM | [10] 54.1 µM | [11] 98.4 µM | [12] > 100 µM | [13] > 100 µM | [14] > 100 µM | [15] 26.7 µM | [16] > 100 µM | [17] 33.1 µM

N#C/C(=C\c1cccc(O)c1)C(N)=O
inactive: [1] > 100 µM | [2] > 100 µM | [3] > 100 µM | [4] > 100 µM | [5] > 100 µM | [6] > 100 µM | [7] > 100 µM | [8] > 100 µM | [9] > 100 µM | [10] > 100 µM | [11] > 100 µM | [12] > 100 µM | [13] > 100 µM | [18] > 100 µM | [14] > 100 µM | [15] > 100 µM | [16] > 100 µM | [17] > 100 µM

Oc1cc(-c2ccccn2)nc2cc(F)ccc12
inactive: [1] 55.8 µM | [3] 38.7 µM | [4] 42.9 µM | [5] > 100 µM | [6] 46 µM | [7] > 100 µM | [8] 43.3 µM | [9] 90.2 µM | [10] 36.6 µM | [11] > 100 µM | [12] > 100 µM | [18] > 100 µM | [14] > 100 µM | [15] 92.3 µM | [16] > 100 µM | [17] 48.2 µM

CCN1c2ccccc2-c2c3c1cc(C)cc3c1ccccc1[n+]2CC
active: [1] 0.743 µM | [2] 0.571 µM | [7] 0.427 µM | [8] 0.644 µM | [10] 1.11 µM | [13] 0.522 µM | [18] 1.04 µM | [14] 0.811 µM | [15] 0.466 µM | [16] 0.437 µM
inactive: [3] 1.23 µM | [5] 2.56 µM | [6] 2.4 µM | [9] 1.15 µM | [11] 1.75 µM | [12] 1.83 µM | [17] 1.4 µM

CC(C)=CC(=O)N1CCN(C(=O)C=C(C)C)CC1
inactive: [1] > 100 µM | [2] > 100 µM | [3] > 100 µM | [4] > 100 µM | [5] > 100 µM | [6] > 100 µM | [7] > 100 µM | [8] > 100 µM | [10] > 100 µM | [12] > 100 µM | [13] > 100 µM | [18] > 100 µM | [14] > 100 µM | [15] > 100 µM | [16] > 100 µM | [17] > 100 µM

CC(=O)NNc1nc(C)c(C(/C=C/c2ccc(Cl)cc2)=N\NS(=O)(=O)c2ccc(C)cc2)s1
inactive: [1] > 100 µM | [2] > 100 µM | [3] > 100 µM | [4] > 100 µM | [5] > 100 µM | [6] > 100 µM | [7] > 100 µM | [8] > 100 µM | [9] > 100 µM | [10] > 100 µM | [11] > 100 µM | [12] > 100 µM | [13] > 100 µM | [18] > 100 µM | [14] > 100 µM | [15] > 100 µM | [16] > 100 µM | [17] > 100 µM

Clc1cc2ns[s+]c2cc1Cl
inactive: [1] 5.33 µM | [2] > 100 µM | [3] 47.8 µM | [4] 81.8 µM | [5] > 44.9 µM | [6] 56.9 µM | [7] > 56.5 µM | [8] 41 µM | [9] > 100 µM | [10] 32.8 µM | [11] > 100 µM | [12] > 100 µM | [13] 21.1 µM | [18] 29.9 µM | [14] 59.7 µM | [15] 31 µM | [16] > 86.3 µM | [17] 36.1 µM

N#CC(C#N)=Cc1ccc(Oc2ccccc2)cc1
inactive: [1] 16.8 µM | [2] 23.4 µM | [3] 53.2 µM | [4] > 100 µM | [5] 55.5 µM | [6] > 100 µM | [7] 25.5 µM | [8] 20.6 µM | [9] 21.7 µM | [10] 32.4 µM | [11] > 43.9 µM | [12] > 100 µM | [13] 27.9 µM | [18] 28.6 µM | [14] 97.5 µM | [15] 18.1 µM | [16] 25.6 µM

Cc1ccccc1NC(=O)c1nc(S)nc(N)c1-c1ccccc1C
inactive: [1] > 100 µM | [2] > 100 µM | [3] > 100 µM | [4] > 100 µM | [5] > 100 µM | [6] > 100 µM | [7] > 100 µM | [8] > 100 µM | [9] > 100 µM | [10] > 100 µM | [11] > 100 µM | [12] > 100 µM | [13] > 100 µM | [18] > 100 µM | [14] > 100 µM | [15] > 100 µM | [16] > 100 µM | [17] > 100 µM

O=[N+]([O-])c1ccc(C(Cl)C(Cl)c2ccc(C(Cl)C(Cl)c3ccc([N+](=O)[O-])cc3[N+](=O)[O-])cc2)c([N+](=O)[O-])c1 (stereo unspecified)
inactive: [1] 1.16 µM | [2] 1.26 µM | [4] 2.13 µM | [5] 5.79 µM | [6] 1.63 µM | [9] 1.27 µM | [11] 2.29 µM | [12] 22.8 µM | [13] 1.89 µM | [18] 1.61 µM | [14] 1.96 µM | [16] 1.72 µM | [17] 1.28 µM
active: [3] 0.957 µM | [7] 0.912 µM | [8] 0.931 µM | [10] 0.75 µM | [15] 0.8 µM

COc1cc(C(=C2SCCS2)c2nccc3cc(OC)c(OC)cc23)c([N+](=O)[O-])cc1OC
inactive: [1] 74.3 µM | [2] 64.7 µM | [4] 54 µM | [5] > 100 µM | [6] 39.4 µM | [7] > 100 µM | [8] 80.4 µM | [9] 74.3 µM | [10] 62.1 µM | [11] 80.4 µM | [12] 65.9 µM | [13] 80.9 µM | [18] 21.6 µM | [14] > 100 µM | [15] 20.8 µM | [16] 34 µM | [17] 8.71 µM

COc1cc2c(c(OC)c1OC)-c1ccc(SC)c(=O)cc1C(CC(=O)Oc1ccccc1F)C2 (stereo unspecified)
inactive: [5] > 7.5 µM
active: [1] < 0.0075 µM | [2] < 0.0075 µM | [3] 0.0103 µM | [6] 0.0226 µM | [7] 0.0328 µM | [8] < 0.0075 µM | [9] 0.0575 µM | [10] 0.00802 µM | [11] 0.0413 µM | [12] 0.0202 µM | [13] 0.036 µM | [18] 0.0531 µM | [14] 0.0307 µM | [15] < 0.0075 µM | [17] 0.0377 µM

NC(=S)NNC(=O)CCC(=O)Nc1ccc(Cl)cc1Cl
inactive: [1] 29.9 µM | [2] > 100 µM | [3] > 100 µM | [5] > 100 µM | [6] > 100 µM | [7] > 100 µM | [8] > 100 µM | [9] > 100 µM | [10] > 100 µM | [11] > 100 µM | [12] > 100 µM | [13] > 100 µM | [18] 55.3 µM | [14] > 100 µM | [15] 43.5 µM | [16] > 100 µM | [17] > 100 µM

COC(=O)CCC(NC(=S)N/N=C(\C)c1nccs1)C(=O)OC (stereo unspecified)
inactive: [1] 28.1 µM | [2] 78.2 µM | [3] 53.3 µM | [4] 67.6 µM | [5] > 100 µM | [6] 74.8 µM | [7] 68.4 µM | [8] 34.4 µM | [9] > 100 µM | [10] 47.5 µM | [11] 53.7 µM | [12] > 100 µM | [13] 56.6 µM | [18] > 10 µM | [14] 52.5 µM | [15] 3.23 µM | [16] > 100 µM | [17] > 100 µM

O=[N+]([O-])C1C2C=CC(C2)[C@H]1c1ccc(Cl)cc1Cl (stereo partly specified)
inactive: [2] 35.3 µM | [3] 36.2 µM | [5] 69.7 µM | [6] 35.2 µM | [7] 57.1 µM | [8] 37 µM | [9] 42.3 µM | [10] 74.5 µM | [11] 49 µM | [13] 45.1 µM | [18] 26.7 µM | [14] 75.5 µM | [15] 24.9 µM | [16] 31.8 µM | [17] 23.3 µM

CC(C)[C@H](CCl)NC(=O)c1cccc(C(=O)N[C@H](CCl)C(C)C)n1 (stereo in doubt)
inactive: [2] > 100 µM | [3] > 100 µM | [4] > 100 µM | [5] > 100 µM | [6] > 100 µM | [8] > 100 µM | [9] > 100 µM | [10] > 100 µM | [11] > 100 µM | [12] > 100 µM | [13] > 100 µM | [18] > 100 µM | [14] > 100 µM | [15] > 100 µM | [17] > 100 µM
